{"source": "patent US20260344665A1", "about": "“FUNGICIDAL COMPOUND” (priority 2022, published 2026)", "tested_on": "Blumeria graminis f.sp. tritici", "assay": "Mixture with malonomicin, leaf disc, Blumeria graminis f.sp. tritici preventive", "type": "in vivo", "settings": "foliar, 168 h, read-out: control of fungal growth", "excerpt": "A stock solution for oligosaccharide compound according to the present invention was produced in water plus 0.025% Tween®20. Malonomicin was produced according to Law et al, 2018 (Nature Catalys is | VOL 1 | DECEMBER 2018 | 977-984). A stock solution of malonomicin was produced in water plus 0.025% Tween®20.\nAssays to test efficacy of mixtures of the compound of Formula (I) in combination with malonomicin on the control of fungal pathogens in a leaf disc assay were designed for two 24 well plates.\nTable 11 and Table 12: Outline of 24 well testplate (3) and testplate (4) including concentration of compounds per well. The upper number in the cell indicates the oligosaccharide compound of the present invention concentration (ppm), the lower number malonomicin concentration (ppm). Column (1) holds a dilution series of compound of Formula (I), row (4-D) hold a dilution series of malonomicin. Well 4-D-(1) represents an untreated check. This design was applied for tests including Blumeria graminis f.sp. tritici (EPPO code: ERYSGT) with preventive spray timing and Parastagonospora nodorum (EPPO code: LEPTNO) with preventive spray timing.\nA first set of master plates with 1× concentrated spray solution of the compound of Formula (I) stock diluted in water with concentrations according to Table 8, Table 9, Table 11 and Table 12, respectively, was prepared. Each well contained 0.025% Tween®20. Accordingly, a second set of master plates with 1× concentrated malonomicin stock diluted in water was prepared. Each well of the second set contained 0.025% Tween®20. Leaf segments placed on agar in 24 well plates are sprayed with 8 ul of solution from the master plate containing compound of Formula (I) and the leaf segments were let to dry, followed 2 hours later by 8 ul of solution from the master plate containing malonomicin. After second sprays have dried, leaf segments are infected with fungal spores to obtain a preventive application timing. Alternatively, leaf segments infected one day before spray of the compounds are used, resulting in a curative spray timing. In addition, several plates were produced where leaf segments were sprayed 2× in absence of test compound (with only Tween®20), representing the untreated check samples. For each leaf segment percent leaf coverage of disease symptoms was assessed. Percent leaf coverage reduction relative to the untreated check was calculated. Efficacy of the mixtures was tested in duplicate and on different fungal species. Reported efficacy values are the average of two replicate results.\nBlumeria graminis f.sp. tritici (EPPO Code: ERYSGT) with Preventive Spray Timing\nWheat (cultivar Kanzler) leaf segments are placed on agar in multiwell plates (24-well format) and sprayed with test solutions (8 ul per well). After drying, the leaf disks are inoculated with spores of the fungus. After appropriate incubation the activity of a compound is assessed 7 dpi (days post inoculation) as preventive fungicidal activity.", "data": [{"compound": "CC(=O)NC1C(OCC(OC2OC(CO)C(O)C(O)C2O)C2OC(OC3C(O)C(CO)OC(OC4(CO)OC(C(O)CO)C(O)C4OC4OC(CO)C(O)C(O)C4O)C3O)C(O)C(O)C2OC2OC(C(O)CO)C(O)C(O)C2OC2OCC(OC(N)=O)C(O)C2O)OC(CO)C(O)C1O", "note": "(stereo not shown) [compound of Formula (I)]", "values": [{"measurement": "inhibition of growth at 9.38 µg/mL", "setting": "Formula (I) 9.38 ppm solo", "value": 10, "unit": "%"}, {"measurement": "inhibition of growth at 18.75 µg/mL", "setting": "Formula (I) 18.75 ppm solo", "value": 0, "unit": "%"}, {"measurement": "inhibition of growth at 37.5 µg/mL", "setting": "Formula (I) 37.5 ppm solo", "value": 0, "unit": "%"}, {"measurement": "inhibition of growth at 75 µg/mL", "setting": "Formula (I) 75 ppm solo", "value": 20, "unit": "%"}, {"measurement": "inhibition of growth at 150 µg/mL", "setting": "Formula (I) 150 ppm solo", "value": 0, "unit": "%"}, {"measurement": "inhibition of growth at 300 µg/mL", "setting": "Formula (I) 300 ppm solo", "value": 10, "unit": "%"}, {"measurement": "inhibition of growth at 600 µg/mL", "setting": "Formula (I) 600 ppm solo", "value": 10, "unit": "%"}]}]}
